# Source: patent US9168329B2, “Beta-peptides with antifungal activity” (Wisconsin Alumni Research Foundation, priority 2006, dated 2015)
# Read-outs that look alike come from different tables or passages of the source. Square brackets hold non-standard residues; d marks the D form. Ends that are not written are not given here. Peptide text beside a SMILES is read from it.
# How the values were obtained:
# [1] = tested on: Candida albicans (SC5314, ATCC 24433, ATCC 90028); format: cell-based; settings: for MIC: SC5314
# Experimental: Minimum inhibitory concentration assay. Minimum inhibitory concentrations (MIC) for the β-peptides were determined using the broth microdilution assay described by the Committee for Clinical and Laboratory Standards (formerly known as the National Committee for Clinical Laboratory Standards) (National Committee for Clinical Laboratory Standards Reference method for broth dilution antifungal susceptibility testing of yeasts: approved standard—second edition; NCCLS document M27-A2; NCCLS: Wayne, Pa., 2002). Three strains of Candida albicans were used: SC5314, ATCC 24433, and ATCC 90028. Cells were grown for 24 hours on Sabouraud dextrose agar at 30° C. After 24 hours of growth, the cells were suspended in 0.145 M saline, and the concentration was adjusted to between 1×10^6 cells/mL and 5×10^6 cells/mL in saline. The working suspension was obtained by diluting the suspension 1:1000 in RPMI 1640 (with L-glutamine and without sodium bicarbonate, Invitrogen) buffered with 0.145 mol/L 3-(N-morpholino) propanesulfonic acid (MOPS).
# Twofold serial dilutions of stock solutions of α- or β-peptides or amphotericin B (Calbiochem, solubilized in dimethyl sulfoxide) were made in RPMI 1640, and 100 μL aliquots were put into 96-well plates (Falcon). An equal volume of the cell suspension was added to the wells for a total volume of 200 μL. Growth controls and sterility controls were included.
# Plates were incubated at 35° C. for 48 h and then visually inspected for fungal growth. […] Experiments were performed in duplicate and repeated on at least two different days.
# [2] = tested on: human red blood cells (hRBC); test: Hemolysis assay; format: cell-based
# Experimental: Hemolysis assay. The hemolysis assay was performed using human red blood cells (hRBC) as described previously (Raguse, et al. J. Am. Chem. Soc. 2002, 124, 12774-12785; Porter, et al. J. Am. Chem. Soc. 2005, 127, 11516-11529). The hRBC were washed three times in TRIS-buffered saline (TBS; 10 mM TRIS, 150 mM NaCl, pH 7.2) and then diluted to a concentration of 1% (v/v) in TBS. The hRBC suspension (80 μL) was added to twofold dilutions of peptides in TBS (20 μL) in a 96-well plate (Falcon). Wells containing hRBC treated with 20 μL TBS provided a negative control, and wells with high concentrations of the peptide melittin (Sigma) served as a positive control. After incubating at 37° C. for 1 h, plates were centrifuged, and 50 μL of the supernatant was diluted with 50 μL of water in a fresh 96-well plate. The absorbance of the diluted supernatant was measured at 405 nm, and the percent hemolysis for each well was calculated from
# [formula] where A405^peptide is the absorbance for the supernatant of hRBC treated with peptide, A405^buffer is the absorbance for the supernatant of hRBC in TBS, and A405^completlysis is the average absorbance for the supernatant of cells treated with melittin at concentrations of 50-400 μg/mL. Experiments were performed in duplicate on at least two different days. Biofilm Antifungal Susceptibility Testing
# [3] = pH 7, physiological ionic strength
# [4] = average over three C. albicans strains, pH 7, physiological ionic strength, Table 1 prints no unit
Compound,"antifungal activity in the planktonic NCCLS assay (in words) [1, 3]","Average MIC ([1]; SC5314, pH 7) [mg/L]",% Hemolysis at MIC [2] [%],further results
"cecropin B (KWKVFKKIEKMGRNIRNGIVKAGPAIAVLGEAKAL; ends and bridges not checked; UniProt P01508 27-61, looked up) [amphiphilic host-defense α-peptide, reference compound]",neither cecropin B nor a magainin derivative displays any activity,,,
"NCCCC[C@@H](CC(N)=O)NC(=O)[C@H]1CCCC[C@@H]1NC(=O)[C@H]1CCCC[C@@H]1NC(=O)C[C@H](CCCCN)NC(=O)[C@H]1CCCC[C@@H]1NC(=O)[C@H]1CCCC[C@@H]1NC(=O)C[C@H](CCCCN)NC(=O)[C@H]1CCCC[C@@H]1NC(=O)[C@H]1CCCC[C@@H]1NC(=O)C[C@@H](N)Cc1ccc(O)cc1 [β-peptide 5, β^3Tyr-(ACHC-ACHC-β^3Lys)3]",,21,7,MIC [1]: 16 mg/L
CC(C)C[C@@H](CC(=O)N[C@H]1CCCC[C@@H]1C(=O)N[C@@H](CCCCN)CC(N)=O)NC(=O)C[C@H](CCCCN)NC(=O)[C@H]1CCCC[C@@H]1NC(=O)C[C@H](CC(C)C)NC(=O)C[C@H](CCCCN)NC(=O)[C@H]1CCCC[C@@H]1NC(=O)C[C@H](CC(C)C)NC(=O)C[C@@H](N)Cc1ccc(O)cc1 [β^3Tyr-(β^3Leu-ACHC-β^3Lys)3],,,,MIC [1]: 16 mg/L
"CC[C@@H](C)[C@@H](NC(=O)CN)C(=O)NCC(=O)N[C@H](CCCCN)C(=O)N[C@H](Cc1ccccc1)C(=O)N[C@H](CC(C)C)C(=O)N[C@H](Cc1c[nH]cn1)C(=O)N[C@H](C)C(=O)N[C@H](C)C(=O)N[C@H](CCCCN)C(=O)N[C@H](CCCCN)C(=O)N[C@H](Cc1ccccc1)C(=O)N[C@H](C)C(=O)N[C@H](CCCCN)C(=O)N[C@H](C)C(=O)N[C@H](Cc1ccccc1)C(=O)N[C@@H](C(=O)N[C@H](C)C(=O)N[C@H](CCC(=O)O)C(=O)N[C@@H](C(=O)N[C@H](CCSC)C(=O)N[C@H](CC(N)=O)C(=O)N[C@H](CO)C(N)=O)[C@H](C)CC)C(C)C [D-Magainin 2 derivative, reference compound] (H-G[dI]G[dK][dF][dL][dH][dA][dA][dK][dK][dF][dA][dK][dA][dF][dV][dA][dE][dI][dM][dN][dS]-NH2; N-terminus assumed)",inactive,>128,48,
"NCCCC[C@H](CC(N)=O)NC(=O)C[C@@H](Cc1ccccc1)NC(=O)[C@@H]1CCCC[C@H]1NC(=O)C[C@@H](CCCCN)NC(=O)C[C@@H](Cc1ccccc1)NC(=O)[C@@H]1CCCC[C@H]1NC(=O)C[C@@H](CCCCN)NC(=O)C[C@@H](Cc1ccccc1)NC(=O)[C@@H]1CCCC[C@H]1NC(=O)C[C@H](N)Cc1ccc(O)cc1 [(R)β^3Tyr-[(R,R)ACHC—(R)β^3Phe-(R)β^3Lys]3]",,,,MIC [1]: 8 mg/L
C9-β^3Tyr-(ACHC-ACHC-β^3Lys)3,,,,"Average MIC [1, 4]: 16 mg/L"
β^3Tyr-(ACHC-β^3Val-β^3Arg)3,showed activity in the planktonic assay,,,
"CC[C@H](C)[C@H](NC(=O)CN)C(=O)NCC(=O)N[C@@H](CCCCN)C(=O)N[C@@H](Cc1ccccc1)C(=O)N[C@@H](CC(C)C)C(=O)N[C@@H](Cc1c[nH]cn1)C(=O)N[C@@H](C)C(=O)N[C@@H](C)C(=O)N[C@@H](CCCCN)C(=O)N[C@@H](CCCCN)C(=O)N[C@@H](Cc1ccccc1)C(=O)N[C@@H](C)C(=O)N[C@@H](CCCCN)C(=O)N[C@@H](C)C(=O)N[C@@H](Cc1ccccc1)C(=O)N[C@H](C(=O)N[C@@H](C)C(=O)N[C@@H](CCC(=O)O)C(=O)N[C@H](C(=O)N[C@@H](CCSC)C(=O)N[C@@H](CC(N)=O)C(=O)N[C@@H](CO)C(N)=O)[C@@H](C)CC)C(C)C [L-Magainin 2 derivative, reference compound] (H-GIGKFLHAAKKFAKAFVAEIMNS-NH2; N-terminus assumed)",neither cecropin B nor a magainin derivative displays any activity,>128,48,
"CC(C)[C@@H](CC(=O)N[C@H]1CCCC[C@@H]1C(=O)N[C@@H](CCCCN)CC(=O)N[C@H](CC(=O)N[C@H]1CCCC[C@@H]1C(=O)N[C@H]1CCCC[C@@H]1C(=O)N[C@@H](CCCCN)CC(N)=O)C(C)C)NC(=O)C[C@@H](NC(=O)C[C@@H](N)CCCCN)C(C)C [β-peptide 7, β^3Lys-β^3Val-β^3Val-ACHC-β^3Lys-β^3Val-ACHC-ACHC-β^3Lys]",lack of antifungal activity,,,
"NCCCC[C@@H](CC(N)=O)NC(=O)C[C@H](Cc1ccccc1)NC(=O)[C@H]1CCCC[C@@H]1NC(=O)C[C@H](CCCCN)NC(=O)C[C@H](Cc1ccccc1)NC(=O)[C@H]1CCCC[C@@H]1NC(=O)C[C@H](CCCCN)NC(=O)C[C@H](Cc1ccccc1)NC(=O)[C@H]1CCCC[C@@H]1NC(=O)C[C@@H](N)Cc1ccc(O)cc1 [β-peptide 3, β^3Tyr-(ACHC-β^3Phe-β^3Lys)3]",,8,80,
"CC(C)[C@@H](CC(=O)N[C@@H](CCCCN)CC(N)=O)NC(=O)[C@H]1CCCC[C@@H]1NC(=O)C[C@H](CCCCN)NC(=O)C[C@@H](NC(=O)[C@H]1CCCC[C@@H]1NC(=O)C[C@H](CCCCN)NC(=O)C[C@@H](NC(=O)[C@H]1CCCC[C@@H]1N)C(C)C)C(C)C [β-peptide 6, (ACHC-β^3Val-β^3Lys)3]",,,,"Average MIC [1, 4]: 17 mg/L; antifungal activity in the planktonic NCCLS assay (in words) ([1]; pH 7, physiological ionic strength, listed as 6): average MIC is indistinguishable relative to β^3Tyr-containing variant (1); antifungal activity in the planktonic NCCLS assay (in words) ([1]; pH 7, physiological ionic strength, listed as (ACHC-β^3Val-β^3Lys)3): showed activity in the planktonic assay; % Hemolysis at MIC ([2]; human red blood cells, at the average MIC): 5%"
"CC(C)[C@@H](CC(=O)N[C@@H](CCCCN)CC(=O)N[C@H](CC(=O)N[C@H](CC(=O)N[C@@H](CCCCN)CC(=O)N[C@H](CC(=O)N[C@H](CC(=O)N[C@@H](CCCCN)CC(N)=O)C(C)C)C(C)C)C(C)C)C(C)C)NC(=O)C[C@@H](NC(=O)C[C@@H](N)Cc1ccc(O)cc1)C(C)C [β-peptide 4, β^3Tyr-(β^3Val-β^3Val-β^3Lys)3]",,69,9,"antifungal activity in the planktonic NCCLS assay (in words) ([1]; pH 7, physiological ionic strength, listed as 4): substantially weaker antifungal activity; antifungal activity in the planktonic NCCLS assay (in words) ([1]; pH 7, physiological ionic strength, listed as β^3Tyr-(β^3Val-β^3Val-β^3Lys)3): showed activity in the planktonic assay"
"CC(C)C[C@@H](CC(=O)N[C@@H](CCCCN)CC(=O)N[C@H]1CCCC[C@@H]1C(=O)N[C@H](CC(=O)N[C@@H](CCCCN)CC(=O)N[C@H]1CCCC[C@@H]1C(=O)N[C@H](CC(=O)N[C@@H](CCCCN)CC(N)=O)CC(C)C)CC(C)C)NC(=O)[C@H]1CCCC[C@@H]1NC(=O)C[C@@H](N)Cc1ccc(O)cc1 [β-peptide 2, β^3Tyr-(ACHC-β^3Leu-β^3Lys)3]",,11,73,
